Key:
[1] = biological target: His-tagged KRAS G12D protein (Homo sapiens, UniProt P01116, G12D); assay: KRAS G12D TR-FRET assay (binding); settings: biotinylated KRPep-2d substrate, GDP in assay buffer
[2] = system: Phosphorylation of ERK1/2 in AsPC-1 cells; assay: Phospho-ERK1/2 MSD assay; format: cell-based; settings: Homo sapiens, ASPC1, read-out: 2 h p-ERK (AsPC-1 cells), IC50 (μM), 2 hours compound treatment
Experimental: Sixteen hours prior to compound treatment, AsPC-1 cells were seeded in 96-well cell culture plates at a density of 25,000 cells/well and incubated at 37° C., 5% CO2. A compound dose-response titration was diluted in growth media, added to appropriate wells of a cell culture plate, and then incubated at 37° C., 5% CO2 for 2 hours.

Chain of His-tagged KRAS G12D protein (P01116 1-188 isoform P01116-2 G12D): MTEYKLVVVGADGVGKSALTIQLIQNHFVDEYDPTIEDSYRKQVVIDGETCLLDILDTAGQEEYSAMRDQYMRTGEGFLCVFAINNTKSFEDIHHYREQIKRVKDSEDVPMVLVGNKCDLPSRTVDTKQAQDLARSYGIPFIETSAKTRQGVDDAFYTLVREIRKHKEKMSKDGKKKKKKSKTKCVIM

Row | IC50 [1] [nM] | IC50 [2] [µM] | SMILES
1 | 2 | 0.072 | CCc1c(F)ccc2cc(O)cc(-c3ncc4c(N5CCOCC(=O)C5)nc(OCC56CCCN5CC(F)C6)nc4c3F)c12 [Example 67, 4-(7-(8-ethyl-7-fluoro-3-hydroxy-naphthalen-1-yl)-8-fluoro-2-(((2R,7aS)-2-fluorotetrahydro-1H-pyrrolizin-7a(5H)-yl)methoxy)-pyrido[4,3-d]pyrim-idin-4-yl)-1,4-oxazepan-6-one]
2 | 3 | 0.063 | CCc1c(F)ccc2cc(O)cc(-c3ncc4c(N5CCOCC(O)(CC)C5)nc(OC[C@@]56CCCN5C[C@H](F)C6)nc4c3F)c12 (stereo partly drawn) [Example 73, 6-Ethyl-4-(7-(8-ethyl-7-fluoro-3-hydroxynaphthalen-1-yl)-8-fluoro-2-(((2R,7aS)-2-fluorotetrahydro-1H-pyrrolizin-7a(5H)-yl)methoxy)pyrido[4,3-d]pyrimidin-4-yl)-1,4-oxazepan-6-ol]
3 | 5 | 1.38 | CCc1c(F)ccc2cc(O)cc(-c3ncc4c(N5CCOCC(S(N)(=O)=O)C5)nc(OC[C@@]56CCCN5C[C@H](F)C6)nc4c3F)c12 (stereo partly drawn) [Example 63, 4-(7-(8-Ethyl-7-fluoro-3-hydroxy-naphthalen-1-yl)-8-fluoro-2-(((2R,7aS)-2-fluorotetrahydro-1H-pyrrolizin-7a(5H)-yl)meth-oxy)pyrido[4,3-d]pyrimidin-4-yl)-1,4-oxazepane-6-sulfonamide]
4 | 57 | > 10 | CCc1c(F)ccc2cc(O)cc(-c3ncc4c(N5CCS(=N)(=O)CC5)nc(OC[C@@]56CCCN5C[C@H](F)C6)nc4c3F)c12 [Example 35, 4-(7-(8-Ethyl-7-fluoro-3-hydroxynaphthalen-1-yl)-8-fluoro-2-(((2R,7aS)-2-fluorotetrahydro-1H-pyrrolizin-7a(5H)-yl)methoxy)pyrido[4,3-d]pyrimidin-4-yl)-1-imino-1 λ^6-thiomorpholine 1-oxide]
5 | 3 | 0.193 | CCc1c(F)ccc2cc(O)cc(-c3ncc4c(N5CCOCC(C#N)C5)nc(OC[C@@]56CCCN5C[C@H](F)C6)nc4c3F)c12 (stereo partly drawn) [Example 61, 4-(7-(8-Ethyl-7-fluoro-3-hydroxy-naphthalen-1-yl)-8-fluoro-2-(((2R,7aS)-2-fluorotetrahydro-1H-pyrrolizin-7a(5H)-yl)meth-oxy)-pyrido[4,3-d]pyrimidin-4-yl)-1,4-oxazepane-6-carbonitrile]
6 | 5 | 0.171 | CCc1c(F)ccc2cc(O)cc(-c3ncc4c(N5CCOC[C@@H](OC)C5)nc(OC[C@@]56CCCN5C[C@H](F)C6)nc4c3F)c12 [Example 39, 5-Ethyl-6-fluoro-4-(8-fluoro-2-(((2R,7aS)-2-fluorotetrahydro-1H-pyrrolizin-7a(5H)-yl)methoxy)-4-((S)-6-methoxy-1,4-oxazepan-4-yl)pyrido[4,3-d]pyrimidin-7-yl)naphthalen-2-ol]
7 | 6 | 0.308 | CCc1c(F)ccc2cc(O)cc(-c3ncc4c(N5CC6CC(C#N)C(C5)O6)nc(OC[C@@]56CCCN5C[C@H](F)C6)nc4c3F)c12 (single isomer, unassigned) [Example 72]

The remaining lines, values behind:

Row | SMILES | IC50 [1] [nM] | IC50 [2] [µM]
8 | CCc1cccc2cc(O)cc(-c3ncc4c(N5CC6COC(C6)C5)nc(OC[C@@]56CCCN5C[C@H](F)C6)nc4c3F)c12 (stereo partly drawn) [Example 10, 4-(4-(6-Oxa-3-azabicyclo[3.2.1]octan-3-yl)-8-fluoro-2-(((2R,7aS)-2-fluorotetrahydro-1H-pyrrolizin-7a(5H)-yl)methoxy)pyrido [4,3-d]pyrimidin-7-yl)-5-ethylnaphthalen-2-ol] | 8 | 0.277
9 | CCc1c(F)ccc2cc(O)cc(-c3ncc4c(N5CCCS(=O)(=O)C5)nc(OC[C@@]56CCCN5C[C@H](F)C6)nc4c3F)c12 [Example 62, 3-(7-(8-Ethyl-7-fluoro-3-hydroxy-naphthalen-1-yl)-8-fluoro-2-(((2R,7aS)-2-fluorotetrahydro-1H-pyrrolizin-7a(5H)-yl)meth-oxy)pyrido[4,3-d]pyrimidin-4-yl)-1,3-thiazinane 1,1-dioxide] | 1 | 0.07
10 | CCc1cccc2cc(O)cc(-c3ncc4c(N5CCCOCC5)nc(OC[C@@]56CCCN5C[C@H](F)C6)nc4c3F)c12 [Example 2, 5-Ethyl-4-(8-fluoro-2-(((2R,7aS)-2-fluorotetrahydro-1H-pyrrolizin-7a(5H)-yl)methoxy)-4-(1,4-oxazepan-4-yl)pyrido[4,3-d]pyrimidin-7-yl)naphthalen-2-ol] | 1 | 0.033
11 | C#Cc1cccc2cc(O)cc(-c3ncc4c(N5CCCOCC5)nc(OC[C@@H]5C[C@@H](F)CN5C)nc4c3F)c12 [Example 12, 5-Ethynyl-4-(8-fluoro-2-(((2S,4R)-4-fluoro-1-methylpyrrolidin-2-yl)methoxy)-4-(1,4-oxazepan-4-yl)pyrido[4,3-d]pyrimidin-7-yl)naphthalen-2-ol] | 4 | 0.131
12 | Oc1cc(Cl)c(C2CC2)c(-c2ncc3c(N4CCCOCC4)nc(OCC4(CN5CCOCC5)CC4)nc3c2F)c1 [Example 22, 3-Chloro-4-cyclopropyl-5-(8-fluoro-2-((1-(morpholinomethyl)cyclopropyl)methoxy)-4-(1,4-oxazepan-4-yl)pyrido[4,3-d]pyrimidin-7-yl)phenol] | 11 | 1.29
13 | Oc1cc(Cl)c(C2CC2)c(-c2ncc3c(N4CCCOCC4)nc(OC[C@@]45CCCN4C[C@H](F)C5)nc3c2F)c1 [Example 18, 3-Chloro-4-cyclopropyl-5-(8-fluoro-2-(((2R,7aS)-2-fluorotetrahydro-1H-pyrrolizin-7a(5H)-yl)methoxy)-4-(1,4-oxazepan-4-yl)pyrido[4,3-d]pyrimidin-7-yl)phenol] | 2 | 0.162
14 | CCc1c(F)ccc2cc(O)cc(-c3ncc4c(N5CC6CC5CS6(=O)=O)nc(OC[C@@]56CCCN5C[C@H](F)C6)nc4c3F)c12 (stereo partly drawn) [Example 59, 5-(7-(8-Ethyl-7-fluoro-3-hydroxy-naphthalen-1-yl)-8-fluoro-2-(((2R,7aS)-2-fluorotetrahydro-1H-pyrrolizin-7a(5H)-yl)meth-oxy)pyrido[4,3-d]pyrimidin-4-yl)-2-thia-5-azabicyclo [2.2.1]heptane 2,2-dioxide] | 14 | 3.63
15 | Oc1cc(-c2ncc3c(N4C[C@H]5COC[C@@H](C4)O5)nc(OC[C@@]45CCCN4C[C@H](F)C5)nc3c2F)c2c(F)c(F)ccc2c1 [Example 19, 4-(4-((1R,5S)-3,9-Dioxa-7-azabicyclo[3.3.1]nonan-7-yl)-8-fluoro-2-(((2R,7aS)-2-fluorotetrahydro-1H-pyrrolizin-7a(5H)-yl)methoxy)pyrido [4,3-d]pyrimidin-7-yl)-5,6-difluoronaphthalen-2-ol] | 9 | 1.1
16 | CCc1cccc2cc(O)cc(-c3ncc4c(N5CCCOCC5)nc(OCC5(CN6CCOCC6)CC5)nc4c3F)c12 [Example 20, 5-Ethyl-4-(8-fluoro-2-((1-(morpholinomethyl)cyclopropyl)methoxy)-4-(1,4-oxazepan-4-yl)pyrido[4,3-d]pyrimidin-7-yl)naphthalen-2-ol] | 5 | 0.336
17 | CCc1c(F)ccc2cc(O)cc(-c3ncc4c(N5CCCS(=O)(=O)CC5)nc(OC[C@@]56CCCN5C[C@H](F)C6)nc4c3F)c12 [Example 37, 4-(7-(8-Ethyl-7-fluoro-3-hydroxynaphthalen-1-yl)-8-fluoro-2-(((2R,7aS)-2-fluorotetrahydro-1H-pyrrolizin-7a(5H)-yl)methoxy)pyrido[4,3-d]pyrimidin-4-yl)-1,4-thiazepane 1,1-dioxide] | 11 | 2.66
